We go through 3 compounds from paper PMC9413440, “An Iterative Approach Guides Discovery of the FabI Inhibitor Fabimycin, a Late-Stage Antibiotic Candidate with In Vivo Efficacy against Drug-Resistant Gram-Negative Infections” (ACS Central Science, 2022).

For assay [1], the target named is A. baumannii FabI (Acinetobacter baumannii, UniProt D0CAD5). Briefly: In vitro FabI enzymatic inhibition assay. The format is biochemical. The following applies: AbFabI; Morrison's quadratic fit; 5 nM enzyme; read-out: Ki app. Here is the method:
(§1) supplemented with 100 µg/mL ampicillin at 37°C until OD600 reached 0.6-0.7. The cells were induced with 1mM IPTG and incubated for 20 hours at 18°C and spun down at 8000 rpm for 15 minutes. Cell pellet was resuspended in the lysis buffer (50 mM Tris-HCl pH 8.0, 500 mM Na Cl, 20 mM imidazole, 10% glycerol, 0.5 mM TCEP, protease inhibitor and Lysonase) and passed through microfluidizer followed by centrifugation and filtration to remove cell debris. The clarified lysate was supplemented with 20 mM imidazole and passed over a HisTrap column (Cytiva) pre-equilibrated with the wash buffer (50 mM Tris-HCl pH 8.0, 500 mM NaCl, 20 mM imidazole, 10% glycerol, 0.5 mM TCEP). The column was washed with the wash buffer and eluted over a 20-500 mM imidazole gradient. The appropriate fractions were pooled, and the histidine tag was removed by TEV cleavage. The protein mixture was passed over a HisTrap column to separate the cleaved protein from the uncleaved ones. The cleaved protein was pooled and passed over an S75 size exclusion column (GE LifeSciences) pre-equilibrated with 50 mM Tris-HCl pH 8.0, 500 mM NaCl, 0.5 mM TCEP and 10% glycerol. Fractions containing pure protein were pooled, concentrated at 10 mg/mL and stored at -80°C. […]
(§2) In vitro FabI enzymatic inhibition assay
(§3) Recombinant E. coli and A. baummani FabI enzymes were used in a continuous NADH absorbance assay (20 µL in 384w format). Compounds and the Crotonyl-CoA substrate (Sigma–Aldrich 28007) were dispensed into a plate (GeinerBio-One 781101). The reaction was initiated by the addition of a reaction master mix solution containing enzyme and NADH (Sigma–Aldrich N8129) suspended in reaction buffer (50 mM HEPES pH 7.4, 150 mM NaCl, 1 mM EDTA, 0.01 mg/mL BSA, 0.01% Tween). Final concentrations were 5 nM enzyme, 150 μM Crotonyl-CoA, 380 μM NADH, 0.05% DMSO in 1x reaction buffer. After shaking for 5 seconds the reaction was monitored at NADH absorbance (340nm, 25°C) using a Molecular Devices SpectraMax M5 microplate reader. The linear portion of the progress curve was fit using plate-reader software. Percentage activity was calculated relative to DMSO only and no-substrate controls in each plate and the data were fit to Morrison’s quadratic using Graphpad Prism 9.3 to obtain apparent inhibition constant (Ki app) values. […]
(§4) 480 Real-Time PCR System as a function of a temperature ramp (25-95°C; 0.1°/s) and the Tm was calculated using the […]

Assay [2] has as its target T1, E. coli FabI (Escherichia coli, UniProt P0AEK4).
T1 construct: His(6) with TEV site (cleaved yes); made in house; host or cells: E. coli BL21(DE3)
In words: In vitro FabI enzymatic inhibition assay. It counts as biochemical. The following applies: for Ki: EcFabI, Morrison's quadratic fit, 5 nM enzyme, read-out: Ki app. Here is the method: as §1, §2, §3, §4

Assay [3] has as its system A. baumannii AR-0273. In words: MIC, broth microdilution (CLSI). It counts as cell-based. The following applies: Acinetobacter baumannii, AR0273; A. baumannii AR-0273 clinical isolate. As for the experimental part: (§5) II. Materials and Methods for Biological Experiments
(§6) S. aureus ATCC 29213 and E. coli MG1655 were obtained from the American Type Culture Collection (ATCC). E. coli BW25113 and E. coli JW5503 were obtained from the Keio Collection. AR-bank strains were obtained from the Centers for Disease Control and Prevention and FDA Antibiotic Resistance Isolate Bank.
(§7) Antimicrobial susceptibility tests
(§8) Susceptibility testing was performed in biological triplicate, unless noted otherwise, using the micro-dilution broth method as outlined by the Clinical and Laboratory Standards Institute. Bacteria were cultured with cation-adjusted Mueller Hinton broth (Sigma Aldrich, catalogue number: 90922). […]
(§9) NH3: m/z 391.2 → 171.0. Fabimycin: m/z 405.3 → 145.3. Power analysis was not used to determine the number of replicates. Error bars represent the standard error of the mean of three biological replicates. All compounds evaluated in biological assays were ≥95% pure.

For assay [4], the system named is A. baumannii AR-0299. In words: MIC, broth microdilution (CLSI). It counts as cell-based. To be noted: Acinetobacter baumannii, AR0299; A. baumannii AR-0299 clinical isolate; † = dose-independent trailing growth. As for the experimental part:
as §5, §6, §7, §8, §9

Assay [5] has as its system S. aureus ATCC 29213. In words: MIC, broth microdilution (CLSI). It counts as cell-based. To be noted: Staphylococcus aureus, ATCC29213; S. aureus 29213. As for the experimental part:
as §5, §6, §7, §8, §9
(In broth dilution the organism is exposed to a series of concentrations in liquid medium.)

Assay [6] relates to E. coli AR-0085. In words: MIC, broth microdilution (CLSI). The following applies: Escherichia coli, AR0085; E. coli AR-0085 clinical isolate. It counts as cell-based. Here is the method: as §5, §6, §7, §8, §9
In assay [7] the test system is K. pneumoniae AR-0066. Briefly: MIC, broth microdilution (CLSI). It counts as cell-based. To be noted: Klebsiella pneumoniae, AR0066; K. pneumoniae AR-0066 clinical isolate. Here is the method: as §5, §6, §7, §8, §9
In assay [8] the test system is K. pneumoniae AR-0560. Briefly: MIC, broth microdilution (CLSI). To be noted: Klebsiella pneumoniae, AR0560; K. pneumoniae AR-0560 clinical isolate. The format is cell-based. Here is the method: as §5, §6, §7, §8, §9
Assay [9] relates to E. coli AR-0048. Briefly: MIC, broth microdilution (CLSI). The following applies: Escherichia coli, AR0048; E. coli AR-0048 clinical isolate. It counts as cell-based. Here is the method: as §5, §6, §7, §8, §9
Assay [10] relates to K. pneumoniae BAA-2472. In words: MIC, broth microdilution (CLSI). The format is cell-based. The following applies: Klebsiella pneumoniae, BAA2472. As for the experimental part: as §5, §6, §7, §8, §9
Assay [11] relates to A. baumannii AR-0033. In words: MIC, broth microdilution (CLSI). To be noted: Acinetobacter baumannii, AR0033; A. baumannii AR-0033 clinical isolate; † = dose-independent trailing growth. It counts as cell-based. As for the experimental part:
as §5, §6, §7, §8, §9

The subject of assay [12] is E. coli MG1655. In words: MIC, broth microdilution (CLSI). It counts as cell-based. To be noted: Escherichia coli. Here is the method:
as §5, §6, §7, §8, §9

For assay [13], the system named is K. pneumoniae AR-0113. Briefly: MIC, broth microdilution (CLSI). It counts as cell-based. To be noted: Klebsiella pneumoniae, AR0113; K. pneumoniae AR-0113 clinical isolate. As for the experimental part: as §5, §6, §7, §8
(§10) Error bars represent the standard error of the mean of three biological replicates. All compounds evaluated in biological assays were ≥95% pure.

Assay [14] relates to A. baumannii AR-0313. Briefly: MIC, broth microdilution (CLSI). It counts as cell-based. The following applies: Acinetobacter baumannii, AR0313; A. baumannii AR-0313 clinical isolate; † = dose-independent trailing growth. As for the experimental part:
as §5, §6, §7, §8, §10

Assay [15] deals with E. coli ΔtolC (JW5503). In words: MIC, broth microdilution (CLSI). The format is cell-based, Escherichia coli. Here is the method: as §5, §6, §7, §8, §9

In brackets after ≈: the same amount, converted by molar mass.

Sequence of A. baumannii FabI (D0CAD5 entry or part of it): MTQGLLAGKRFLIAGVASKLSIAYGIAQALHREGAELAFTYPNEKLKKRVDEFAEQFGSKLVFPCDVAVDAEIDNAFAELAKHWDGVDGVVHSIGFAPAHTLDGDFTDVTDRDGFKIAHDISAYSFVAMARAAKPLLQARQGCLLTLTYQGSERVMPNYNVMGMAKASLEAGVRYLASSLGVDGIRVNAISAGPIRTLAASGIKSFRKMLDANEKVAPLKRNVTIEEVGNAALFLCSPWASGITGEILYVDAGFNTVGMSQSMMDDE
T1 sequence (P0AEK4 whole entry): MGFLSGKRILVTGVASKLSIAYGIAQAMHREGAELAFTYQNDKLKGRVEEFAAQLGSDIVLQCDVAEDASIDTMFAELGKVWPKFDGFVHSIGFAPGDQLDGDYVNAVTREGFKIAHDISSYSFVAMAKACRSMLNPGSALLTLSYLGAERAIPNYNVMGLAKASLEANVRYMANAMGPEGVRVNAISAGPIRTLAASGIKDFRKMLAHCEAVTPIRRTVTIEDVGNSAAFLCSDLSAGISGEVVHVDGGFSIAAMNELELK

What is called MIC is the smallest concentration in the dilution series that meets the test's criterion for growth inhibition. Read a high MIC as a need for much substance. As to `Cc1c(CN(C)C(=O)/C=C/c2cnc3c(c2)CC[C@@H](N)C(=O)N3)oc2ccccc12` [(R)-7], the Ki in [1] amounted to 109 ± 14 nM; in assay [2], 38 ± 4 nM. Further, the minimal inhibitory concentration (MIC) in assay [3] was more than 128 µg/mL; in [4] it was more than 128 µg/mL; in assay [5], 0.125 µg/mL (≈ 0.309 µM); in [6], 128 µg/mL (≈ 316 µM); in assay [7], more than 128 µg/mL; in assay [8] it was more than 128 µg/mL. In addition, the MIC in [9] is 128 µg/mL (≈ 316 µM); in assay [10], more than 128 µg/mL; in [11], more than 128 µg/mL; in assay [12] it was 64 µg/mL (≈ 158 µM); in [13], more than 128 µg/mL; in assay [14], more than 128 µg/mL. This compound also yielded an MIC in assay [15] (Escherichia coli) of 0.5 µg/mL (≈ 1.24 µM).
Take `Cc1c(CN(C)C(=O)/C=C/c2cnc3c(c2)CCCC(=O)N3)oc2ccccc12` [compound 10]: the Ki was 487 ± 101 nM in assay [1] and 131 ± 22 nM in assay [2]. The MIC in assay [3] was 16 µg/mL (≈ 41.1 µM); in assay [4], 16 µg/mL (≈ 41.1 µM); in [5], 0.002 µg/mL (≈ 0.00514 µM); in assay [6] it was 8 µg/mL (≈ 20.5 µM); in assay [7], 32 µg/mL (≈ 82.2 µM); in assay [8], more than 32 µg/mL. The MIC in assay [9] was determined as 8 µg/mL (≈ 20.5 µM); in [10] it was 16 µg/mL (≈ 41.1 µM); in [11], 16 µg/mL (≈ 41.1 µM); in assay [12], 8 µg/mL (≈ 20.5 µM); in assay [13] it was 32 µg/mL (≈ 82.2 µM); in [14] it was 16 µg/mL (≈ 41.1 µM). Also, 0.031 µg/mL (≈ 0.0796 µM) was the least that counted as inhibitory in assay [15] (Escherichia coli) (MIC).
With `Cc1c(CN(C)C(=O)/C=C/c2cnc3c(c2)CC[C@H](N)C(=O)N3)oc2ccccc12` [fabimycin], the Ki in assay [1] stood at 17 ± 3 nM; in [2] it was 8 ± 2 nM. Besides, in assay [2] (fabimycin relative to (R)-7), the “difference in potency between fabimycin and (R)-7 against purified E. coli FabI” value came to 4.75 fold. Moreover, the MIC in assay [3] was 4 µg/mL (≈ 9.89 µM); in [4] it was 2 µg/mL (≈ 4.94 µM); in assay [5], 0.004 µg/mL (≈ 0.00989 µM); in assay [6] it was 1 µg/mL (≈ 2.47 µM); in assay [7], 4 µg/mL (≈ 9.89 µM); in assay [8], 4 µg/mL (≈ 9.89 µM). In addition, the MIC in [9] was 2 µg/mL (≈ 4.94 µM); in assay [10] it was 4 µg/mL (≈ 9.89 µM); in assay [11] it was 4 µg/mL (≈ 9.89 µM); in assay [12] it was 2 µg/mL (≈ 4.94 µM); in [13], 4 µg/mL (≈ 9.89 µM); in assay [14], 4 µg/mL (≈ 9.89 µM). Further, the MIC in [15] (E. coli ΔtolC = JW5503, efflux-deficient) turned out to be 0.016 µg/mL (≈ 0.0396 µM).
